Measured values reported in ChEMBL document CHEMBL5120898, “Bathiapeptides: Polythiazole-Containing Peptides from a Marine Biofilm-Derived Bacillus sp” (J Nat Prod, 2022).

What was measured:
Assay type in all cases: functional, cell-based
HeLa = experiment: Cytotoxicity against human HeLa cells assessed as inhibition of cell growth incubated for 24 hrs by MTT assay
MGC-803 = experiment: Cytotoxicity against human MGC-803 cells assessed as inhibition of cell growth incubated for 24 hrs by MTT assay; conditions: MGC-803, 24 h
MCF7 = experiment: Cytotoxicity against human MCF7 cells assessed as inhibition of cell growth incubated for 24 hrs by MTT assay; conditions: MCF7, 24 h
HepG2 = experiment: Cytotoxicity against human HepG2 cells assessed as inhibition of cell growth incubated for 24 hrs by MTT assay; conditions: HepG2, 24 h

| SMILES | IC50 (HeLa) [µM] | IC50 (MGC-803) [µM] | IC50 (MCF7) [µM] | IC50 (HepG2) [µM] |
| --- | --- | --- | --- | --- |
| CC(C)[C@@H]1NC(=O)[C@@H](Cc2ccccc2)NC(=O)c2csc(n2)-c2csc(n2)-c2csc(n2)[C@@H](C)NC1=O | 8 | 2.9 | 3 | 5 |
| CC[C@H](C)[C@@H]1NC(=O)[C@@H](Cc2ccccc2)NC(=O)c2csc(n2)-c2csc(n2)-c2csc(n2)[C@@H](C)NC1=O | 1.5 | 0.8 | 0.5 | 4.1 |
| CC[C@H](C)[C@@H]1NC(=O)[C@@H](Cc2ccccc2)NC(=O)c2csc(n2)-c2csc(n2)-c2csc(n2)[C@H](C)NC1=O | 29.6 | 16.4 | 10 | 13.1 |
| CC[C@H](C)[C@@H]1NC(=O)[C@@H](Cc2ccccc2)NC(=O)c2csc(n2)-c2csc(n2)[C@@H](C)NC1=O | > 50 | > 50 | > 50 | > 50 |
| CC[C@H](C)[C@H](NC(=O)[C@@H](Cc1ccccc1)NC(C)=O)C(=O)N[C@H](C)c1nc(-c2nc(-c3nc(C(=O)O)cs3)cs2)cs1 | > 50 | > 50 | > 50 | > 50 |
| CC[C@H](C)[C@@H]1NC(=O)[C@@H](Cc2ccccc2)NC(=O)c2csc(n2)-c2csc(n2)-c2csc(n2)CNC1=O | 4.6 | 5.8 | 2.4 | 4.5 |
| CC[C@H](C)[C@@H]1NC(=O)[C@@H](Cc2ccccc2)NC(=O)c2csc(n2)-c2csc(n2)-c2csc(n2)[C@@H](CO)NC1=O | 16.3 | 15.7 | 12.4 | > 50 |
| CC[C@H](C)[C@H](NC(=O)[C@H](N)Cc1ccccc1)C(=O)N[C@H](C)c1nc(-c2nc(-c3nc(C(=O)O)cs3)cs2)cs1 | > 50 | > 50 | > 50 | > 50 |
